According to patent US6770741B1, “Brandykinin antagonist peptides” (Scios Inc., priority 1991, dated 2004):
Values joined by “and” are separate entries in the source; they are usually repeats but may differ in a detail not shown here. Equal entries are not always repeated. Each block holds one molecule with its values, some of them ahead of it. Residues, ends and D or L forms follow the SMILES beside them.

Experiments:
[1] = target: T1, bradykinin receptors on intestinal (ileal longitudinal) smooth muscle (Cavia porcellus, UniProt O70526); test: Bradykinin antagonist activity on guinea pig ileal longitudinal smooth muscle (Schild analysis); type: cell-based; details: antagonism of bradykinin-induced contraction, 5 min antagonist exposure; for Kb: read-out: pA2 (converted)
T1 construct: The longitudinal muscle was separated from the underlying circular muscle; from tissue; host or cells: guinea pig ileal longitudinal smooth muscle strips
T1 sequence (O70526 1-372): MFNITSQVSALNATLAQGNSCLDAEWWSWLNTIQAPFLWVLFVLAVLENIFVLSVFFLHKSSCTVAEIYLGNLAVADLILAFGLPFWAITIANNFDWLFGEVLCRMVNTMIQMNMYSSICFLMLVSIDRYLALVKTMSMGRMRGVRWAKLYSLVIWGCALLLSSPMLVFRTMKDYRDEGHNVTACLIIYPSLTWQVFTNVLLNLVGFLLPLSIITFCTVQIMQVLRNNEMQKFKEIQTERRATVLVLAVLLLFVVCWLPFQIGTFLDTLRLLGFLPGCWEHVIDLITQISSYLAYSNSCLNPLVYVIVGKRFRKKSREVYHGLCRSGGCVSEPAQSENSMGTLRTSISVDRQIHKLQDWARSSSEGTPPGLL
Experimental: Determination of Bradykinin Antagonist Activity
Guinea pig intestine was removed and placed in a Petri dish containing Tyrodes solution and cut into 3-4 cm segments. The longitudinal muscle was separated from the underlying circular muscle using a cotton applicator (Paton and Zar, J. Physiol., (1968), 194:13. Muscle strips were connected to isometric force-displacement transducers (Grass or Gould) coupled to a physiograph and placed in tissue baths containing Tyrode's solution at 37° C. Each preparation was suspended under a resting tension of 2 g.
After equilibration of the tissues, appropriate volumes of bradykinin solutions were cumulatively added to the 10 mL tissue baths to increase the concentration of bradykinin in the bath step-by-step without washing out after each single dose. Higher concentrations were added only after the preceding contraction had reached a steady value. […] Antagonism of bradykinin responses in the presence of antagonist were determined by repeating the cumulative addition procedure for bradykinin after the tissue has been exposed to the antagonist for 5 minutes. Three or four different concentrations of antagonist are studied sequentially in the same preparations. Responses were expressed as a percentage of the maximum contraction elicited by bradykinin in the absence of antagonist. pA2 values were calculated by Schild analysis.

[2] = target: T2, bradykinin receptor (Cavia porcellus, UniProt O70526); test: 3H-Bradykinin binding assay, guinea pig terminal ileum homogenate; details: competition with 3H-bradykinin (~0.3 nM), guinea pig terminal ileum membranes, 90 min ambient temperature
T2 construct: from tissue; host or cells: guinea pig terminal ileum, washed membrane homogenate
T2 sequence (O70526 1-372): T1 sequence (O70526 1-372)
Experimental: Bradykinin Binding Procedure
Binding of ^3H-Bradykinin was preformed using the method of D. C. Manning, R. Vavrek, J. M. Stewart, and S. H. Synder, J. Pharmacol. Exp. Ther., (1986), 237, 504. The tissues used in the binding assay were terminal ileum from male Hartley guinea pigs (150-350 g). After dissection, tissues were placed in 20 vol of ice-cold buffer A (25 mM TES containing 0.2 g/L of 1,10-phenanthroline adjusted to pH 6.8 with ammonium hydroxide) and homogenized using a Ploytron Tissumizer at setting 6 for 15 sec. The homogenate was centrifuged at 50,000 x g for 10 min, the supernatant discarded, and the pellet resuspended in ice-cold buffer A by homogenization with the Polytron. Each tissue was homogenized and centrifuged three times. The final pellet was resuspended in buffer A containing bovine serum albumin (1 g/L) and Bacitracin (0.14 g/L) to a final volume of 170 mL/g of the original tissue weight. The binding assay consisted of 1 mL in 12×75 mm polypropylene tubes: 50 uL ^3H-bradykinin (20,000 dpm, ˜0.3 nM in the final assay volume), […] displacing drug in buffer A, and 750 uL tissue homogenate. Each tray contained tubes, to which no drug was added to measure maximum binding and tubes to which bradykinin (1 uM final concentration) had been added, to measure […]. Specific binding accounted for 96-98% total binding. Tubes were incubated for 90 min at ambient temperature. The assays were terminated by filtration over Whatman GF/B glass fiber filters that had been pretreated for 2 hours with polyethyleneimine (2 g/L) using a Brandel Tissue Harvester, followed by washing with 4×1 mL aliquots of ice-cold 50 mM Tris, pH 7.4. Filters were dissolved in Ready-Safe Fluor (Beckman) for at least 90 min before quantitation by liquid scintillation spectrometry. Kd values were determined using saturation binding and analysis by EBDA (G. A. MacPherson, J. Pharmacol. Methods, (1985), 213), followed by LIGAND (P. J. Munson, D. Rodbard, Anal. Biochem., (1980), 220). Ki values were determined using competitive analysis followed by EBDA and LIGAND. The following test results were obtained.

[3] = anesthetized rat, intra-aortic vs intravenous administration; cited from earlier work
[4] = cited from earlier work

Molecule: CO[C@H]1C[C@H](C(=O)N2Cc3ccccc3C[C@H]2C(=O)N[C@@H](CCCNC(=N)N)C(=O)O)N(C(=O)[C@H](CO)NC(=O)[C@H](Cc2cccs2)NC(=O)CNC(=O)[C@@H]2C[C@@H](O)CN2C(=O)[C@@H]2CCCN2C(=O)[C@H](CCCNC(=N)N)NC(=O)[C@H](N)CCCNC(=N)N)C1 [D-Arg-Arg-Pro-4Hyp-Gly-Thi-Ser-(D-4-hydroxyproline trans methyl ether)-Tic-Arg]
- Kb [1]: 0.186 µM
- Ki [2]: 1.54 nM

Molecule: CCCO[C@H]1C[C@H](C(=O)N2Cc3ccccc3C[C@H]2C(=O)N[C@@H](CCCNC(=N)N)C(=O)O)N(C(=O)[C@H](CO)NC(=O)[C@H](Cc2cccs2)NC(=O)CNC(=O)[C@@H]2C[C@@H](O)CN2C(=O)[C@@H]2CCCN2C(=O)[C@H](CCCNC(=N)N)NC(=O)[C@H](N)CCCNC(=N)N)C1 [D-Arg-Arg-Pro-4Hyp-Gly-Thi-Ser-(D-4-Hydroxyproline trans propyl ether)-Tic-Arg]
- Kb [1]: 0.0245 µM
- Ki [2]: 0.59 nM

Molecule: CCCO[C@@H]1C[C@H](C(=O)N2Cc3ccccc3C[C@H]2C(=O)N[C@@H](CCCNC(=N)N)C(=O)O)N(C(=O)[C@H](CO)NC(=O)[C@H](Cc2cccs2)NC(=O)CNC(=O)[C@@H]2C[C@@H](O)CN2C(=O)[C@@H]2CCCN2C(=O)[C@H](CCCNC(=N)N)NC(=O)[C@H](N)CCCNC(=N)N)C1 [D-Arg-Arg-Pro-4Hyp-Gly-Thi-Ser-(D-4-hydroxyproline cis propyl ether)-Tic-Arg]
- Kb [1]: 8.91 µM and 3.16 µM
- Ki [2]: 172 ± 45 nM

- pA2 [1]: 5.9
Molecule: D-Arg-Arg-Pro-4Hyp-Gly-Phe-Ser-D-Phe-Phe-Arg [reference compound]

Molecule: CO[C@@H]1C[C@H](C(=O)N2Cc3ccccc3C[C@H]2C(=O)N[C@@H](CCCNC(=N)N)C(=O)O)N(C(=O)[C@H](CO)NC(=O)[C@H](Cc2cccs2)NC(=O)CNC(=O)[C@@H]2C[C@@H](O)CN2C(=O)[C@@H]2CCCN2C(=O)[C@H](CCCNC(=N)N)NC(=O)[C@H](N)CCCNC(=N)N)C1 [D-Arg-Arg-Pro-4Hyp-Gly-Thi-Ser-(D-4-hydroxyproline cis methyl ether)-Tic-Arg]
- Kb [1]: 5.75 µM and 6.31 µM
- Ki [2]: 164 ± 20 nM

Molecule: NC(N)=NCCC[C@H](NC(=O)[C@H](Cc1ccccc1)NC(=O)[C@@H]1CCCN1C(=O)[C@H](CO)NC(=O)[C@H](Cc1ccccc1)NC(=O)CNC(=O)[C@@H]1CCCN1C(=O)[C@@H]1CCCN1C(=O)[C@@H](N)CCCN=C(N)N)C(=O)O [bradykinin, Arg Pro Pro Gly Phe Ser Pro Phe Arg] (H-RPPGFSPFR-OH)
- destruction on a single passage through the pulmonary circulation [3]: 98-99%
- half life in the systemic circulation [4]: less than 30 seconds
